Laboratory results published in patent US8524736B2, “Stereoisomeric compounds and methods for the treatment of gastrointestinal and central nervous system disorders” (Armetheon, Inc., priority 2004, dated 2013).

Assays:
CYP450 2D6 = CYP450 2D6 (Homo sapiens, UniProt P10635); settings: recombinant enzyme
fasted, conscious dogs = assay: gastric, small intestinal and colonic motor activity in fasted, conscious dogs; settings: for prokinetic effects in the dog gut: IV and PO; for effect on migrating motor complex (MMC) characteristics: antrum, proximal, mid and distal small intestine
human 5-HT4 receptor = target: T1, human 5-HT4 receptor (Homo sapiens, UniProt Q13639); assay: adenylyl cyclase stimulation in cells stably expressing human 5-HT4 receptor; format: cell-based; settings: negative logarithm of the EC50
T1 construct: expressed in transfected cells

[1] = tested on: isolated, perfused guinea pig hearts
[2] = metabolism by esterases in human plasma
5-HT4 Receptor = target: T2, 5-HT4 Receptor (Cavia porcellus, UniProt O70528); assay: 5-HT4 Receptor Binding, Guinea Pig Striatum, [3H]GR113808; settings: versus ATI-7500
T2 construct: Guinea Pig Striatum; from tissue; host or cells: guinea pig striatum

fed dogs = assay: gastric emptying in fed conscious dogs (time of MMC return); format: in vivo, dog; settings: IV infusion over 20 minutes before a solid meal; FIG. 2

T1 sequence (Q13639 whole entry): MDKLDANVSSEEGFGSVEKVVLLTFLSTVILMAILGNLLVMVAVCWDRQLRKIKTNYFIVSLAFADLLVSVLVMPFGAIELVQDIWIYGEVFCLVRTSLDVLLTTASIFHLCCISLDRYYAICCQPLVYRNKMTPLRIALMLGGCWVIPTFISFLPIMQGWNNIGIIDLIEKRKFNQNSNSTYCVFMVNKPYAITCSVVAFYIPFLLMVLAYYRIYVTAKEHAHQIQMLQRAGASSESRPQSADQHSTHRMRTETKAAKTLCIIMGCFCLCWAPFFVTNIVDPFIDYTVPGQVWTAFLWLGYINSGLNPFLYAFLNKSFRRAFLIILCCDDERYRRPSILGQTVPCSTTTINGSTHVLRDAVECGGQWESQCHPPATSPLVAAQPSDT
CYP450 2D6, sequence (P10635 whole entry): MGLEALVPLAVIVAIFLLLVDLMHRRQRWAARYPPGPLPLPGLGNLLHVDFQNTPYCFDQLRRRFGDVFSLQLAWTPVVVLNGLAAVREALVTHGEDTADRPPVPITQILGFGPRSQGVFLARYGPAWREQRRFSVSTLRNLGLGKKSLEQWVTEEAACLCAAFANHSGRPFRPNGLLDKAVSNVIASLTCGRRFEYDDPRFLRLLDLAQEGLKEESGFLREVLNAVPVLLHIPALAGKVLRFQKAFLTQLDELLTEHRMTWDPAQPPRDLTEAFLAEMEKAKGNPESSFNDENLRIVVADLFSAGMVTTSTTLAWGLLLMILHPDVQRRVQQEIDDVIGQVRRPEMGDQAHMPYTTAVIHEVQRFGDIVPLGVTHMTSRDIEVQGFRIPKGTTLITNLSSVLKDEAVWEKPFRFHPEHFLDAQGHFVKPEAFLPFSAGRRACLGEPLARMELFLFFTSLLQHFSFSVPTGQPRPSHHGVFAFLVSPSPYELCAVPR
T2 sequence (O70528 whole entry): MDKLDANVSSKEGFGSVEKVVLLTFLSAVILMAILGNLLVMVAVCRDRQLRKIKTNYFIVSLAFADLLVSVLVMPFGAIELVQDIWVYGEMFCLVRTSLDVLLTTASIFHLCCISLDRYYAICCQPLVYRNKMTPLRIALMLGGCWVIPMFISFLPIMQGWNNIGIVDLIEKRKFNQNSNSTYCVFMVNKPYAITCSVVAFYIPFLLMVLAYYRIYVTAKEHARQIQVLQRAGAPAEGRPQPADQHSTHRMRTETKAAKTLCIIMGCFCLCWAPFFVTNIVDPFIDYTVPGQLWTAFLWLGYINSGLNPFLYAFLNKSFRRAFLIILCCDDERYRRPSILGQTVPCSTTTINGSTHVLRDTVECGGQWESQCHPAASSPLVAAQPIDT

With `COc1cc(N)c(Cl)cc1C(=O)NC1CCN(CCCOc2ccc(F)cc2)CC1OC` (stereo not drawn) [Cisapride, reference compound] the “inhibitory activity against CYP450 2D6” value (CYP450 2D6) was “significant inhibitory activity”, the “prokinetic effects in the dog gut” value (fasted, conscious dogs) was “caused prokinetic effects” and the “effect on migrating motor complex (MMC) characteristics” value (fasted, conscious dogs) was “minimal effect”. For the same compound, the “antral and small bowel contractility” value (fasted, conscious dogs; fasted dogs) was “dose-dependent stimulation of antral and small bowel contractility” and the colonic motor activity (fasted, conscious dogs; fasted dogs) was “relatively little effect on colonic motor activity”.
For `COc1cc(N)c(Cl)cc1C(=O)N[C@@H]1CCN(CCCCCC(=O)O)C[C@@H]1OC` [ATI-7500, 6-((3S,4R)-4-(4-amino-5-chloro-2-methoxybenzamido)-3-methoxypiperidin-1-yl)hexanoic acid], the “Potency pEC50” value (human 5-HT4 receptor) was 6.40.
For `COc1cc(N)c(Cl)cc1C(=O)N[C@@H]1CCN(CCCCCC(=O)O[C@H]2CN3CCC2CC3)C[C@@H]1OC` [ATI-7505, 6-[4R-(4-amino-5-chloro-2-methoxy-benzoylamino)-3S-methoxy-piperidin-1-yl]-hexanoic acid 1-aza-bicyclo[2.2.2]oct-3′R-yl ester], the “modulation of cardiac electrophysiologic parameters” value [1] was “very weak modulator of cardiac electrophysiologic parameters”, the “prokinetic effects in the dog gut” value (fasted, conscious dogs) was “caused prokinetic effects” and the “side effects such as diarrhea, anorexia, or weight loss” value (fasted, conscious dogs; IV and PO doses, dogs) was “exhibited no side effects”. The “MMC frequency in the proximal small intestine relative to controls” value (fasted, conscious dogs; PO) was “increased MMC frequency”, the “effect on migrating motor complex (MMC) characteristics” value (fasted, conscious dogs) was “minimal effect” and the “antral and small bowel contractility” value (fasted, conscious dogs; fasted dogs) was “dose-dependent stimulation of antral and small bowel contractility”. The colonic motor activity (fasted, conscious dogs; fasted dogs) was “relatively little effect on colonic motor activity”, the “development of retrograde giant migrating contractions” value (fasted, conscious dogs; fasted dogs) was “not associated with the development of retrograde giant migrating contractions” and the “Potency pEC50” value (human 5-HT4 receptor) was 8.45. For the same compound, the “metabolism by esterases in human plasma” value [2] was “rapidly metabolized by esterases in human plasma”, the “affinity for the 5-HT4 receptor, fold greater than ATI-7500” value (5-HT4 Receptor) was “at least 360 fold” and the “time of MMC return (index of gastric emptying)” value (fed dogs) was “significantly shortened the time of MMC return”.
